From US8673841B2 (Ferring B.V., priority 2008, dated 2014)
Starred links: 1 amine or outer side, 2 acyl side, 3 side chain; linkers in the order of their positions; H or OH if unused. Positions of bridges follow the written chain, without caps; N, C: chain ends. Non-standard residues stand in square brackets, D forms with d. Residues, ends and D or L forms follow the SMILES beside them. N(3-phenylpropyl)Gly = O=C(O)CNCCCc1ccccc1; Phe(4-Et) = CCc1ccc(C[C@H](N)C(=O)O)cc1; X1 = O=C(CN(Cc1ccc(F)c(F)c1)[*:1])[*:2]; X4 = Cc1ccc(CCN(CC(=O)[*:2])[*:1])cc1; cisHyp = O=C(O)[C@@H]1C[C@H](O)CN1; X2 = O=C(CCC[*:2])[*:1]; Mpa = O=C(O)CCS

Columns and labels:
[1] = target: human vasopressin (hV2) receptor (Homo sapiens, UniProt P30518); test: luciferase-based transcriptional reporter gene assay expressing the human vasopressin (hV2) receptor; details: for Selectivity hV2/hOT: EC50 ratio hV2/hOT
Sequence of human vasopressin (hV2) receptor (P30518 whole entry): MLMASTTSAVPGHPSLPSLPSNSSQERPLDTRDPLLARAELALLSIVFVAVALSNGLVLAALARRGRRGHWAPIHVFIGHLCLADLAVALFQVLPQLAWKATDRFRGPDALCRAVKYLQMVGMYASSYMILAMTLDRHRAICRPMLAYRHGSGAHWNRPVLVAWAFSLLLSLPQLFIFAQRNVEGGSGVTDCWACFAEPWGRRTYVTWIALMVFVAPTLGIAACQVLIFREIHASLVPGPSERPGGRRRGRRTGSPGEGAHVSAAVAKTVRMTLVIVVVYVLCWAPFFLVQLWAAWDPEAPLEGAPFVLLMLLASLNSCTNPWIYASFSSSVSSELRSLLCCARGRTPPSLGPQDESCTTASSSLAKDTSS
Protocol: (§1) Agonist activity of compounds on the hOT receptor was determined in a transcriptional reporter gene assay by transiently transfecting a hOT receptor expression DNA into a Chinese Hamster Ovary (CHO) cell line in concert with a reporter DNA containing intracellular calcium responsive promoter elements regulating expression of firefly luciferase.
(§2) The EC50 value given is the geometric mean expressed in nanomol/l (nM). Selectivity values are given as EC50 ratios.

hOT receptor = target: T1, hOT receptor (Homo sapiens, UniProt P30559); test: transcriptional reporter gene assay (luciferase), agonist activity on hOT receptor in transfected CHO cells
T1 sequence (P30559 1-389): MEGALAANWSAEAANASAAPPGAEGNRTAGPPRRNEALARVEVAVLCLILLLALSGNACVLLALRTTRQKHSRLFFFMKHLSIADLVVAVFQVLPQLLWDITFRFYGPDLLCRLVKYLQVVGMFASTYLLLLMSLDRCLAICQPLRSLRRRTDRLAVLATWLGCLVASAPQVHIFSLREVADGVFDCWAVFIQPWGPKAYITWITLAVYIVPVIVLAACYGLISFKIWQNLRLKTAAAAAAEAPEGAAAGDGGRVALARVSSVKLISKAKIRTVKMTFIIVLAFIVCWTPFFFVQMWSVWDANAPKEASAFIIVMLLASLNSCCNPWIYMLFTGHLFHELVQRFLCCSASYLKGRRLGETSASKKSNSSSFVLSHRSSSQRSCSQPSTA
Protocol: as §1, §2

CCc1ccc(C[C@@H]2NC(=O)CCCSC[C@@H](C(=O)N3C[C@@H](O)C[C@H]3C(=O)N[C@@H](CC(C)C)C(=O)NCC(N)=O)NC(=O)[C@H](CC(N)=O)NC(=O)[C@H](CCC(N)=O)NC(=O)[C@H]([C@@H](C)CC)NC2=O)cc1 [Compound 6] ([Phe(4-Et)]IQNC[cisHyp]LG-NH2; linker N-5 via X2)
EC50 [1]: 39.9 nM
Selectivity hV2/hOT [1]: 629
EC50 (hOT receptor): 0.064 nM

CC[C@H](C)[C@@H]1NC(=O)[C@H](Cc2ccc(O)cc2)NC(=O)CCSSC[C@@H](C(=O)N(CC(=O)N[C@@H](CC(C)C)C(=O)NCC(N)=O)Cc2ccc(F)c(F)c2)NC(=O)[C@H](CC(N)=O)NC(=O)[C@H](CCC(N)=O)NC1=O [Compound 11] ([Mpa]YIQNC[X1]LG-NH2; disulfide 1-6)
EC50 [1]: 58.5 nM
Selectivity hV2/hOT [1]: 2217
EC50 (hOT receptor): 0.026 nM

CC[C@H](C)[C@@H]1NC(=O)[C@H](Cc2ccc(O)cc2)NC(=O)CCSSC[C@@H](C(=O)N(CCc2ccc(C)cc2)CC(=O)N[C@@H](CC(C)C)C(=O)NCC(N)=O)NC(=O)[C@H](CC(N)=O)NC(=O)[C@H](CCC(N)=O)NC1=O [Compound 15] ([Mpa]YIQNC[X4]LG-NH2; disulfide 1-6)
EC50 [1]: 102 nM
Selectivity hV2/hOT [1]: 2533
EC50 (hOT receptor): 0.04 nM

CC[C@H](C)[C@@H]1NC(=O)[C@H](Cc2ccc(O)cc2)NC(=O)CCSSC[C@@H](C(=O)N(CCCc2ccccc2)CC(=O)N[C@@H](CC(C)C)C(=O)NCC(N)=O)NC(=O)[C@H](CC(N)=O)NC(=O)[C@H](CCC(N)=O)NC1=O [Compound 25] ([Mpa]YIQNC[N(3-phenylpropyl)Gly]LG-NH2; disulfide 1-6)
EC50 [1]: 159 nM
Selectivity hV2/hOT [1]: 2736
EC50 (hOT receptor): 0.058 nM
